Laboratory results: ChEMBL document CHEMBL1201862, “PubChem BioAssay data set” (2004)
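Tested at 5 concentrations; 48 h exposure; 96-well plates; endpoints linearly interpolated, else capped at highest concentration. GI50: concentration for 50% inhibition of growth.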 The source made the active and inactive calls. No stated cut-off is given here; in the data, active = GI50 up to about 1.1 µM and inactive = higher.

How the values were obtained:
Assay in all cases: NCI anticancer screen, dose series, 48 h
SK-MEL-28 = tested on: SK-MEL-28
OVCAR-8 = tested on: OVCAR-8
SNB-19 = tested on: SNB-19
UACC-62 = tested on: UACC-62
A498 = tested on: A498
OVCAR-5 = tested on: OVCAR-5
RPMI-8226 = tested on: RPMI-8226
U-251 = tested on: U-251
PC-3 = tested on: PC-3
HCC 2998 = tested on: HCC 2998
A549 = tested on: A549
COLO 205 = tested on: COLO 205
EKVX = tested on: EKVX
HOP-62 = tested on: HOP-62
MDA-N = tested on: MDA-N
M14 = tested on: M14
NCI-H226 = tested on: NCI-H226
NCI-H23 = tested on: NCI-H23
HL-60 = tested on: HL-60
UACC-257 = tested on: UACC-257

Compound | GI50 (SK-MEL-28) | GI50 (OVCAR-8) | GI50 (SNB-19) | GI50 (UACC-62) | GI50 (A498) | GI50 (OVCAR-5) | GI50 (RPMI-8226) | GI50 (U-251) | GI50 (PC-3) | GI50 (HCC 2998) | GI50 (A549) | GI50 (COLO 205) | GI50 (EKVX) | GI50 (HOP-62) | GI50 (MDA-N) | GI50 (M14) | GI50 (NCI-H226) | GI50 (NCI-H23) | GI50 (HL-60) | GI50 (UACC-257)
COc1c(OC(C)=O)c(OC(C)=O)cc2c1-c1ccc(OC)c(=O)cc1C(NC(C)=O)CC2 (stereo not given) | < 0.0363 µM (active) | 0.0254 µM (active) | 0.0336 µM (active) | < 0.01 µM (active) | 0.0513 µM (active) | 2.61 µM (inactive) | < 0.0142 µM (active) | 0.0321 µM (active) | 0.0493 µM (active) | 0.0217 µM (active) | 0.209 µM (active) | 0.0171 µM (active) | 8.51 µM (inactive) | 0.0635 µM (active) | < 0.01 µM (active) | < 0.0125 µM (active) | 0.331 µM (active) | 0.0199 µM (active) | < 0.01 µM (active) | 
CC1CNC(c2ccc(CN3CCC(CCCC4CCN(Cc5ccc(C6=NC(C)CN6)cc5)CC4)CC3)cc2)=N1 (stereo not given) | > 100 µM (inactive) | 71.3 µM (inactive) | 24.5 µM (inactive) | 59.8 µM (inactive) | > 100 µM (inactive) | 25.3 µM (inactive) |  | 35 µM (inactive) | 36.8 µM (inactive) | 14.8 µM (inactive) | 66.1 µM (inactive) | 17.6 µM (inactive) | 32.2 µM (inactive) | 32.2 µM (inactive) | 17.5 µM (inactive) | 62.5 µM (inactive) | 32.9 µM (inactive) | > 100 µM (inactive) | > 100 µM (inactive) | 18.8 µM (inactive)
COc1ccc2c(c1)CCc1c-2n(CCN2CCCCC2)c2ccc(OC)cc12 | > 100 µM (inactive) | 92 µM (inactive) | > 100 µM (inactive) | > 100 µM (inactive) | > 100 µM (inactive) | > 100 µM (inactive) | > 100 µM (inactive) | > 100 µM (inactive) | > 100 µM (inactive) | > 100 µM (inactive) | > 100 µM (inactive) | > 100 µM (inactive) | > 100 µM (inactive) | > 100 µM (inactive) | > 100 µM (inactive) | > 100 µM (inactive) | 10.4 µM (inactive) | > 100 µM (inactive) |  | > 100 µM (inactive)
C=CCc1cccc2cc(C(=O)Nc3ccccc3)c(=N)oc12 | 80.4 µM (inactive) | > 100 µM (inactive) | > 100 µM (inactive) | 41.1 µM (inactive) | 23.2 µM (inactive) | 38.8 µM (inactive) | > 100 µM (inactive) | > 100 µM (inactive) | 39.2 µM (inactive) | 4.8 µM (inactive) | 15 µM (inactive) | > 100 µM (inactive) |  | > 100 µM (inactive) | 70.6 µM (inactive) | 60.7 µM (inactive) | 36.6 µM (inactive) | 79.8 µM (inactive) | > 100 µM (inactive) | > 100 µM (inactive)
S=C1c2cc(Cl)ccc2N=C(NC2CCCC2)C2CSCN12 (stereo not given) | > 100 µM (inactive) | > 100 µM (inactive) | > 100 µM (inactive) | > 92.9 µM (inactive) | > 100 µM (inactive) | > 100 µM (inactive) | > 63.8 µM (inactive) | > 100 µM (inactive) | > 55.6 µM (inactive) | > 100 µM (inactive) | > 84.9 µM (inactive) | > 100 µM (inactive) | > 91 µM (inactive) | > 100 µM (inactive) | 97.3 µM (inactive) | > 78 µM (inactive) | > 100 µM (inactive) | 62.5 µM (inactive) |  | > 91.6 µM (inactive)
OC(CC(O)(C(F)(F)F)C(F)(F)F)C(O)c1ccco1 (stereo not given) | > 10 µM (inactive) | > 10 µM (inactive) | > 10 µM (inactive) | > 10 µM (inactive) | 0.22 µM (active) |  | > 10 µM (inactive) | > 10 µM (inactive) | > 10 µM (inactive) | > 10 µM (inactive) | > 10 µM (inactive) | > 10 µM (inactive) | > 10 µM (inactive) | > 10 µM (inactive) | > 10 µM (inactive) | > 10 µM (inactive) | > 10 µM (inactive) | > 10 µM (inactive) | > 10 µM (inactive) | > 10 µM (inactive)
COc1cccc2nc3c(C(=O)NCCN(C)C)cccc3cc12 | 2.63 µM (inactive) | 1.26 µM (inactive) | 2.35 µM (inactive) | 2.23 µM (inactive) | 0.307 µM (active) | 1.94 µM (inactive) | 1.21 µM (inactive) | 1.44 µM (inactive) | 2.34 µM (inactive) | 3.44 µM (inactive) | 0.473 µM (active) | 1.13 µM (inactive) | 2.38 µM (inactive) | 1.19 µM (inactive) | 2.18 µM (inactive) | 1.64 µM (inactive) | 1.4 µM (inactive) | 1.17 µM (inactive) |  | 1.92 µM (inactive)
C(=N\c1ccc(-c2nc3ccccc3s2)cc1)/c1ccco1 | > 100 µM (inactive) | 64.9 µM (inactive) | > 100 µM (inactive) | 54.2 µM (inactive) | 27 µM (inactive) | > 100 µM (inactive) | 41.6 µM (inactive) | 47.6 µM (inactive) | 32.5 µM (inactive) | 43.5 µM (inactive) | 56.6 µM (inactive) | 87.3 µM (inactive) | 37.2 µM (inactive) | 30.4 µM (inactive) | 72.9 µM (inactive) | 93.5 µM (inactive) | 56.4 µM (inactive) | 70.6 µM (inactive) |  | 43.8 µM (inactive)
CC1(C)CC(=O)c2c(nc3c4c([nH]c(-c5ccc(Br)cc5)c24)CC(C)(C)C3)C1 | 98.9 µM (inactive) | 49.8 µM (inactive) | 70.3 µM (inactive) | 53.6 µM (inactive) | 13.6 µM (inactive) | 84.9 µM (inactive) |  | 23.8 µM (inactive) | 22.4 µM (inactive) | 19.2 µM (inactive) | 29.6 µM (inactive) | 19.8 µM (inactive) | 50.2 µM (inactive) | > 100 µM (inactive) | 40.3 µM (inactive) | 36.6 µM (inactive) | 40.8 µM (inactive) | 52.1 µM (inactive) | 43.3 µM (inactive) | 66.7 µM (inactive)
CCOC(=O)c1cc2c(=Cc3ccc(N(C)C)cc3)c3ccccc3n2[n+]1C | 1.53 µM (inactive) |  | 2.15 µM (inactive) | 1.33 µM (inactive) | 10.4 µM (inactive) | 5.98 µM (inactive) | 0.301 µM (active) | 0.304 µM (active) | 0.574 µM (active) | 1.69 µM (inactive) | 3.71 µM (inactive) | 0.309 µM (active) | 4.97 µM (inactive) | < 0.01 µM (active) | 1.23 µM (inactive) | 3.15 µM (inactive) | 8.24 µM (inactive) | 2.55 µM (inactive) | 0.372 µM (active) | 1.57 µM (inactive)
COC(=O)CCC1=NCC(C)(C)O1 | > 10 µM (inactive) | > 10 µM (inactive) | > 10 µM (inactive) | > 10 µM (inactive) | > 10 µM (inactive) | > 10 µM (inactive) | > 10 µM (inactive) | > 10 µM (inactive) | > 10 µM (inactive) | > 10 µM (inactive) | > 10 µM (inactive) | > 10 µM (inactive) | > 10 µM (inactive) | > 10 µM (inactive) | > 10 µM (inactive) | > 10 µM (inactive) | > 10 µM (inactive) | > 10 µM (inactive) |  | > 10 µM (inactive)
CC(C)C12CCC3(CCC4C(C)(C(=O)O)CCCC4(C)C3C1)C(CN)C2 (stereo not given) | 39.7 µM (inactive) | 30.7 µM (inactive) | 39 µM (inactive) | 32.4 µM (inactive) | 28.8 µM (inactive) | 42.3 µM (inactive) | 19.3 µM (inactive) | 31.4 µM (inactive) | 45.6 µM (inactive) | 18.4 µM (inactive) | 30.1 µM (inactive) | 17.7 µM (inactive) | 32.2 µM (inactive) | 74.6 µM (inactive) | 28.4 µM (inactive) | 30.4 µM (inactive) | 34.2 µM (inactive) | 25.6 µM (inactive) |  | 40.1 µM (inactive)
C[C@@H]1C[C@H]2[C@@H]3CCC4=CC(=O)C=C[C@]4(C)[C@@]3(Cl)[C@@H](Cl)C[C@]2(C)[C@@]1(O)C(=O)COP(=O)(O)O | > 100 µM (inactive) | > 100 µM (inactive) | > 100 µM (inactive) | > 100 µM (inactive) | > 100 µM (inactive) | > 100 µM (inactive) | 0.0128 µM (active) | > 100 µM (inactive) | > 100 µM (inactive) | > 100 µM (inactive) | > 100 µM (inactive) | > 100 µM (inactive) | > 100 µM (inactive) | > 100 µM (inactive) | 56.2 µM (inactive) | > 100 µM (inactive) | > 100 µM (inactive) | > 100 µM (inactive) |  | > 100 µM (inactive)
COc1cc(OC)c(/C=C\c2ccnc3ccccc23)c(OC)c1 | 5.37 µM (inactive) |  | 5.5 µM (inactive) | 2.49 µM (inactive) | 2.88 µM (inactive) | 6.05 µM (inactive) | 3.06 µM (inactive) | 3.81 µM (inactive) | 5.51 µM (inactive) | 9.31 µM (inactive) | 4.13 µM (inactive) | 1.98 µM (inactive) | 4.65 µM (inactive) | 5.19 µM (inactive) | 0.329 µM (active) | 3.4 µM (inactive) | 4.11 µM (inactive) | 5.61 µM (inactive) | 0.347 µM (active) | 3.75 µM (inactive)
O=C(NC12CC3CC(CC(C3)C1)C2)n1cnc2c(Cl)ncnc21 | 42.9 µM (inactive) | 26 µM (inactive) | > 100 µM (inactive) | 81.1 µM (inactive) | > 100 µM (inactive) | > 100 µM (inactive) | 40.7 µM (inactive) | 27.2 µM (inactive) | 26.4 µM (inactive) | 19.1 µM (inactive) | 38.4 µM (inactive) | 17 µM (inactive) | 25.8 µM (inactive) | 37.5 µM (inactive) | 21.6 µM (inactive) | 23.1 µM (inactive) |  | 22.7 µM (inactive) | 3.28 µM (inactive) | 35.8 µM (inactive)
